Here are results for six molecules from ChEMBL document CHEMBL3779891 (Eur J Med Chem, 2016).

Test [1] relates to HepG2. The experiment in a line: Antioxidant activity in human HepG2 cells assessed as decrease in fluorescence level by measuring ratio of micromol of quercetin to 100 umol of compound after 2.5 hrs measured every 5 mins for 1 hr by DCFH-DA staining based fluorescence assay. The class given is functional. Set-up: scale not given: the % may be the effect or the level left.
Test [2] deals with HepG2. Nature of the test: Antioxidant activity in human HepG2 cells assessed as decrease in fluorescence level after 2.5 hrs measured every 5 mins for 1 hr by DCFH-DA staining based fluorescence assay. The class given is functional, cell-based.
The test system of test [3] is Erythrocyte. The experiment in a line: Inhibition of AAPH-induced oxidative hemolysis in human erythrocytes assessed as smooth and round surface at 100 ug/ml preincubated for 20 mins followed by AAPH addition measured after 2 hrs by scanning electron microscopic analysis. The class given is functional, cell-based.
The subject of test [4] is MCF7. Nature of the test: Antiproliferative activity against human MCF7 cells assessed as reduction in cell survival after 48 hrs by MTT assay. It is filed as functional, cell-based. (In general: Tetrazolium assays rely on reduction of a dye to a coloured formazan, in cell work by metabolically active cells.)
The subject of test [5] is MCF7. The experiment in a line: Induction of apoptosis in human MCF7 cells assessed as morphological deformity at 500 ug/ml after 48 hrs by scanning electron microscopic analysis. It is filed as functional, cell-based.
The subject of test [6] is MCF7. The experiment in a line: Antiproliferative activity against human MCF7 cells assessed as cell survival at 100 ug/ml after 48 hrs by MTT assay relative to control. The class given is functional. Particulars: MCF7, 48 h, read-out: Survival.
For test [7], the system named is MCF7. Nature of the test: Induction of apoptosis in human MCF7 cells assessed as chromatin hypercondensation at 25 to 100 ug/ml after 48 hrs by Hoechst 33258 staining based fluorescence microscopic analysis. The class given is functional, cell-based.
For test [8], the system named is SGC-7901. Nature of the test: Antiproliferative activity against human SGC7901 cells assessed as reduction in cell survival after 48 hrs by MTT assay. The class given is functional, cell-based.
The test system of test [9] is MCF7. Nature of the test: Induction of apoptosis in human MCF7 cells assessed as mitochondrial membrane potential loss at 100 ug/ml after 48 hrs by JC-1 staining based fluorescence microscopic analysis. The class given is functional, cell-based.
In test [10] the target is Superoxide dismutase [Cu-Zn] (Homo sapiens) (UniProt P00441). Nature of the test: Induction of superoxide dismutase activity in human erythrocytes at 100 ug/ml preincubated followed by AAPH addition measured after 2 hrs. It is filed as cell-based.
Test [11] deals with MCF7. Nature of the test: Induction of apoptosis in human MCF7 cells assessed as apoptotic bodies at 500 ug/ml after 48 hrs by scanning electron microscopic analysis. It is filed as functional, cell-based.
The species named for test [12] is Homo sapiens. Nature of the test: Induction of glutathione peroxidase activity in human erythrocytes at 100 ug/ml preincubated followed by AAPH addition measured after 2 hrs. The class given is cell-based.
The test system of test [13] is HeLa. Nature of the test: Antiproliferative activity against human HeLa cells assessed as reduction in cell survival after 48 hrs by MTT assay. The class given is functional, cell-based.
The target of test [14] is T1, Catalase (Homo sapiens) (UniProt P04040).
T1 sequence (whole entry): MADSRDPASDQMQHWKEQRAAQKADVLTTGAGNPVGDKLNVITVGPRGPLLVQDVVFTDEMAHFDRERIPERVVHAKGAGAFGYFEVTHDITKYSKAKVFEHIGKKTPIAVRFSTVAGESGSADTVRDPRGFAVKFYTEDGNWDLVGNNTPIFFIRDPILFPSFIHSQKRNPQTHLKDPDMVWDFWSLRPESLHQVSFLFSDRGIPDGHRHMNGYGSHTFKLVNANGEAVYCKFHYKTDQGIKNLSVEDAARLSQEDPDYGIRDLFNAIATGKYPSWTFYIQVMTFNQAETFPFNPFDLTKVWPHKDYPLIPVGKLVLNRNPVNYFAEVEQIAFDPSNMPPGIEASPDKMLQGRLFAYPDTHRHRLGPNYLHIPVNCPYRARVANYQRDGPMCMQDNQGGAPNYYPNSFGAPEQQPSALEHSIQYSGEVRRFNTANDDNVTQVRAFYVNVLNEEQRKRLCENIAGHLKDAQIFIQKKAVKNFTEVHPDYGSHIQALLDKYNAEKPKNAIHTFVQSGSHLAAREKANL
The experiment in a line: Reduction of catalase activity in human erythrocytes at 100 ug/ml preincubated followed by AAPH addition measured after 2 hrs. It is filed as cell-based. Set-up: scale not given: the % may be the effect or the level left.

In test [15] the test system is Erythrocyte. The experiment in a line: Cytoprotective activity in human erythrocytes assessed as inhibition of AAPH-induced oxidative hemolysis preincubated for 30 mins followed by AAPH induction measured after 2 hrs by spectrophotometric analysis. It is filed as functional, cell-based.
Test [16] in a line: Antiproliferative activity against human SGC7901 cells assessed as cell survival at 100 ug/ml after 48 hrs by MTT assay relative to control. Particulars: SGC-7901, 48 h, read-out: Survival. The class given is functional.
Test [17] deals with HeLa. Nature of the test: Antiproliferative activity against human HeLa cells assessed as cell survival at 100 ug/ml after 48 hrs by MTT assay relative to control. The class given is functional. Conditions: read-out: Survival.
The test system of test [18] is HepG2. Nature of the test: Antioxidant activity in human HepG2 cells assessed as decrease in AAPH-induced ROS level at 100 ug/ml preincubated for 2 hrs followed by AAPH addition by DCFH-DA staining based microplate fluorometric analysis relative to control. Set-up: scale not given: the % may be the effect or the level left. It is filed as functional.
The subject of test [19] is MCF7. The experiment in a line: Induction of apoptosis in human MCF7 cells assessed as chromatin condensation at 500 ug/ml after 12 hrs by scanning electron microscopic analysis. The class given is functional, cell-based.
Test [20] deals with MCF7. Nature of the test: Induction of apoptosis in human MCF7 cells assessed as morphological changes at 500 ug/ml by scanning electron microscopic analysis. It is filed as functional, cell-based. Particulars: TDE = time-dependent effect.
Test [21] has as its system A549. Nature of the test: Antiproliferative activity against human A549 cells assessed as cell survival at 100 ug/ml after 48 hrs by MTT assay relative to control. It is filed as functional. Particulars: A549, 48 h, read-out: Survival.
Test [22] relates to Erythrocyte. The experiment in a line: Cytoprotective activity in human erythrocytes assessed as inhibition of AAPH-induced oxidative hemolysis at 100 ug/ml preincubated for 30 mins followed by AAPH induction measured after 2 hrs by spectrophotometric analysis relative to control. It is filed as functional.
The test system of test [23] is A549. The experiment in a line: Antiproliferative activity against human A549 cells assessed as reduction in cell survival after 48 hrs by MTT assay. It is filed as functional, cell-based.
Test [24] deals with MCF7. Nature of the test: Induction of apoptosis in human MCF7 cells assessed as cytoplasm overflow at 500 ug/ml after 24 hrs by scanning electron microscopic analysis. It is filed as functional, cell-based.
The subject of test [25] is Erythrocyte. Nature of the test: Inhibition of lipid peroxidation in human erythrocytes assessed as reduction in AAPH-induced malondialdehyde formation at 100 ug/ml preincubated for 20 mins followed by AAPH addition measured after 2 hrs by […] relative to untreated control. It is filed as functional.
The test system of test [26] is MCF7. The experiment in a line: Induction of apoptosis in human MCF7 cells assessed as cell shrinkage at 500 ug/ml after 24 hrs by scanning electron microscopic analysis. It is filed as functional, cell-based.
Test [27] deals with MCF7. Nature of the test: Induction of apoptosis in human MCF7 cells assessed as plasma membrane blebbing at 500 ug/ml after 48 hrs by scanning electron microscopic analysis. The class given is functional, cell-based.
For test [28], the system named is MCF7. Nature of the test: Induction of apoptosis in human MCF7 cells assessed as nuclear morphological deformity at 500 ug/ml after 12 hrs by scanning electron microscopic analysis. It is filed as functional, cell-based.

Activity calls are given as the source filed them. No cut-off for these calls is given here.

Superoxide dismutase [Cu-Zn] (Homo sapiens), sequence (P00441 whole entry): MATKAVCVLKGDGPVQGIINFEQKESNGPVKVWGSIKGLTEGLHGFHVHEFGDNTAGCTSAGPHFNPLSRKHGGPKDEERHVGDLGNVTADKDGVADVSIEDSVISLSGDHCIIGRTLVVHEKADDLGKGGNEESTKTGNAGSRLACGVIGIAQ

For `COc1ccc(-c2cc(=O)c3c(O)cc(O)cc3o2)cc1O` [DIOSMETIN], the Activity in [1] is recorded as 58%. For the same molecule, the EC50 in test [2] was 7.98 µmol.
Consider `O=C(O[C@@H]1Cc2c(O)cc(O)cc2O[C@@H]1c1cc(O)c(O)c(O)c1)c1cc(O)c(O)c(O)c1` [EPIGALOCATECHIN GALLATE], for which the Activity in test [1] is given as 33.1%.
Consider `O=c1c(O)c(-c2ccc(O)cc2)oc2cc(O)cc(O)c12` [KAEMPFEROL], for which, in test [3], the inhibition – broadly, the relative decrease from the control value, in per cent – was “Active”. Further, the Activity result in [4] is “Dose-dependent effect”; in test [8] it was “Dose-dependent effect”; in test [13], “Dose-dependent effect”; in test [1] it was 59.8%; in test [14], under 95.5%; in test [18], 88.25%. Also, the figures for the Activity entry in [20], in test [2] and in [23] were “tde”, “Dose-dependent effect” and “Dose-dependent effect”, respectively. Further, the outcome in [5], in test [7], in [9], in test [11], in test [19] and in [24] was Active. For the same molecule, the outcome in [26], in [27] and in test [28] was Active. Besides, the viability at 100 µg/mL in [6] is 47.9%; in test [16], 59.2%; in test [17] it was 57.5%; in [21], 60.2%. The outcome in [10] and in test [12] was inactive. In [15], the inhibition result was “Dose-dependent effect”. Moreover, the EC50 in test [2] turned out to be 7.74 µmol. Moreover, the inhibition at 100 µg/mL worked out at 87.4% in [22] and 36.5% in test [25].
Regarding `O=c1cc(-c2ccc(O)c(O)c2)oc2cc(O)cc(O)c12` [LUTEOLIN], in test [1], the Activity came out at 32.3%.
Take `O=c1c(O)c(-c2cc(O)c(O)c(O)c2)oc2cc(O)cc(O)c12` [MYRICETIN]: the Activity in [1] is 36.8%.
For `O=c1c(O)c(-c2ccc(O)c(O)c2)oc2cc(O)cc(O)c12` [QUERCETIN], the EC50 in [2] amounted to 4.63 µmol.
